According to the NIST ThermoML archive (doi:10.1021/je100757w):
Where “and” joins values, the source holds several entries; their conditions need not be identical. Equal values may be shown once. Numbers after ± are expanded uncertainties.

Test: xn = mol fraction of the nth substance listed
Conditions: for surface tension liquid-gas: Ring tensiometer; for mass density: 101.3 kPa, Liquid

COCCOCCOCCOC [2,5,8,11-tetraoxadodecane] + O
Conditions | mass density [kg/m3] | surface tension liquid-gas
298.15 K, x1 = 0.0012 | – | 53.35 ± 0.89 mN/m
298.15 K, x1 = 0.0024 | – | 51.27 ± 0.87 mN/m
298.15 K, x1 = 0.0029 | – | 49.07 ± 0.85 mN/m
298.15 K, x1 = 0.0036 | – | 48.59 ± 0.84 mN/m
298.15 K, x1 = 0.0043 | – | 47.6 ± 0.83 mN/m
298.15 K, x1 = 0.0173 | 1006.22 ± 0.27 | –
298.15 K, x1 = 0.0206 | – | 40.6 ± 0.78 mN/m
298.15 K, x1 = 0.0375 | – | 38.88 ± 0.77 mN/m
298.15 K, x1 = 0.0695 | – | 36.2 ± 0.75 mN/m
298.15 K, x1 = 0.0905 | – | 33.99 ± 0.74 mN/m
298.15 K, x1 = 0.0914 | 1019.65 ± 0.32 | –
298.15 K, x1 = 0.1223 | – | 33.06 ± 0.74 mN/m
298.15 K, x1 = 0.163 | – | 32.87 ± 0.74 mN/m
298.15 K, x1 = 0.1739 | 1017.24 ± 0.34 | –
298.15 K, x1 = 0.2731 | 1009.97 ± 0.36 | –
298.15 K, x1 = 0.2911 | – | 32.23 ± 0.74 mN/m
298.15 K, x1 = 0.3468 | 1004.7 ± 0.38 | –
298.15 K, x1 = 0.3517 | – | 31.66 ± 0.73 mN/m
298.15 K, x1 = 0.4515 | 998.25 ± 0.44 | –
298.15 K, x1 = 0.4658 | – | 31.16 ± 0.74 mN/m
298.15 K, x1 = 0.5727 | 992.4 ± 0.55 | –
298.15 K, x1 = 0.583 | – | 30.5 ± 0.7 mN/m
298.15 K, x1 = 0.6451 | 989.7 ± 0.62 | –
298.15 K, x1 = 0.659 | – | 30.09 ± 0.74 mN/m
298.15 K, x1 = 0.7279 | – | 29.54 ± 0.75 mN/m
298.15 K, x1 = 0.7766 | 985.98 ± 0.77 | –
298.15 K, x1 = 0.821 | – | 29.05 ± 0.75 mN/m
298.15 K, x1 = 0.8679 | 984.02 ± 0.89 | –
298.15 K, x1 = 0.8823 | – | 28.52 ± 0.75 mN/m
298.15 K, x1 = 0.8977 | 983.45 ± 0.93 | –
298.15 K, x1 = 0.9461 | – | 28.04 ± 0.75 mN/m
298.15 K, x1 = 0.9699 | 981.95 ± 1 | –
298.15 K, x1 = 1 | 981.23 ± 1.1 | 27.56 ± 0.75 mN/m
308.15 K, x1 = 0.0009 | – | 53.01 ± 0.87 mN/m
308.15 K, x1 = 0.0017 | – | 50.04 ± 0.85 mN/m
308.15 K, x1 = 0.0026 | – | 47.96 ± 0.84 mN/m
308.15 K, x1 = 0.0039 | – | 45.41 ± 0.82 mN/m
308.15 K, x1 = 0.0109 | – | 41.72 ± 0.79 mN/m
308.15 K, x1 = 0.0173 | 1004.32 ± 0.27 | –
308.15 K, x1 = 0.0218 | – | 40.14 ± 0.78 mN/m
308.15 K, x1 = 0.0353 | – | 38.28 ± 0.77 mN/m
308.15 K, x1 = 0.0882 | – | 36.04 ± 0.75 mN/m
308.15 K, x1 = 0.0914 | 1016.26 ± 0.31 | –
308.15 K, x1 = 0.1214 | – | 34.06 ± 0.74 mN/m
308.15 K, x1 = 0.1739 | 1010.56 ± 0.32 | –
308.15 K, x1 = 0.1767 | – | 33.08 ± 0.74 mN/m
308.15 K, x1 = 0.2497 | – | 32.48 ± 0.74 mN/m and 31.82 ± 0.73 mN/m
308.15 K, x1 = 0.2731 | 1001.13 ± 0.33 | –
308.15 K, x1 = 0.34 | – | 31.44 ± 0.73 mN/m
308.15 K, x1 = 0.3468 | 995.27 ± 0.38 | –
308.15 K, x1 = 0.4141 | – | 30.89 ± 0.73 mN/m
308.15 K, x1 = 0.4515 | 988.66 ± 0.46 | –
308.15 K, x1 = 0.5272 | – | 30.74 ± 0.74 mN/m
308.15 K, x1 = 0.5727 | 982.92 ± 0.57 | –
308.15 K, x1 = 0.5837 | – | 30.15 ± 0.74 mN/m
308.15 K, x1 = 0.6451 | 980.17 ± 0.65 | –
308.15 K, x1 = 0.7176 | – | 29.76 ± 0.75 mN/m
308.15 K, x1 = 0.7766 | 976.39 ± 0.8 | –
308.15 K, x1 = 0.8234 | – | 29.38 ± 0.75 mN/m
308.15 K, x1 = 0.8679 | 974.51 ± 0.91 | –
308.15 K, x1 = 0.8977 | 973.95 ± 0.95 | –
308.15 K, x1 = 0.9458 | – | 28.74 ± 0.76 mN/m
308.15 K, x1 = 0.9699 | 972.46 ± 1.1 | –
308.15 K, x1 = 1 | 971.71 ± 1.1 | 28.48 ± 0.76 mN/m
318.15 K, x1 = 0.0014 | – | 51.81 ± 0.87 mN/m
318.15 K, x1 = 0.0021 | – | 47.47 ± 0.84 mN/m
318.15 K, x1 = 0.0028 | – | 46.1 ± 0.84 mN/m
318.15 K, x1 = 0.0039 | – | 44.63 ± 0.81 mN/m
318.15 K, x1 = 0.01 | – | 41.37 ± 0.79 mN/m
318.15 K, x1 = 0.0173 | 998.53 ± 0.26 | –
318.15 K, x1 = 0.0212 | – | 39.06 ± 0.77 mN/m
318.15 K, x1 = 0.034 | – | 37.85 ± 0.76 mN/m
318.15 K, x1 = 0.0543 | – | 35.26 ± 0.75 mN/m
318.15 K, x1 = 0.0791 | – | 32.67 ± 0.74 mN/m
318.15 K, x1 = 0.0849 | – | 32.5 ± 0.73 mN/m
318.15 K, x1 = 0.0914 | 1007.41 ± 0.29 | –
318.15 K, x1 = 0.0917 | – | 32.42 ± 0.73 mN/m
318.15 K, x1 = 0.122 | – | 32.27 ± 0.73 mN/m
318.15 K, x1 = 0.1739 | 1001.45 ± 0.29 | –
318.15 K, x1 = 0.1848 | – | 32.14 ± 0.73 mN/m
318.15 K, x1 = 0.2728 | – | 31.26 ± 0.73 mN/m
318.15 K, x1 = 0.2731 | 992.1 ± 0.35 | –
318.15 K, x1 = 0.3289 | – | 31.05 ± 0.73 mN/m
318.15 K, x1 = 0.3468 | 986.06 ± 0.4 | –
318.15 K, x1 = 0.3776 | – | 30.83 ± 0.73 mN/m
318.15 K, x1 = 0.4515 | 979.25 ± 0.49 | –
318.15 K, x1 = 0.4688 | – | 30.3 ± 0.73 mN/m
318.15 K, x1 = 0.5727 | 973.34 ± 0.6 | –
318.15 K, x1 = 0.6451 | 970.59 ± 0.67 | –
318.15 K, x1 = 0.6611 | – | 29.59 ± 0.74 mN/m
318.15 K, x1 = 0.7234 | – | 29.4 ± 0.74 mN/m
318.15 K, x1 = 0.7766 | 966.82 ± 0.82 | –
318.15 K, x1 = 0.8102 | – | 28.99 ± 0.75 mN/m
318.15 K, x1 = 0.8562 | – | 28.68 ± 0.75 mN/m
318.15 K, x1 = 0.8679 | 964.92 ± 0.93 | –
318.15 K, x1 = 0.8915 | – | 28.3 ± 0.75 mN/m
318.15 K, x1 = 0.8977 | 964.34 ± 0.97 | –
318.15 K, x1 = 0.9699 | 962.91 ± 1.1 | –
318.15 K, x1 = 1 | 962.19 ± 1.1 | 27.83 ± 0.76 mN/m
